Measured values reported in US9981916B2 (Genentech, Inc., priority 2013, dated 2018).

Target: T1, RORc ligand binding domain (Homo sapiens, UniProt P51449)
T1 construct: host or cells: E. coli
T1 sequence (P51449 269-508 limits assumed): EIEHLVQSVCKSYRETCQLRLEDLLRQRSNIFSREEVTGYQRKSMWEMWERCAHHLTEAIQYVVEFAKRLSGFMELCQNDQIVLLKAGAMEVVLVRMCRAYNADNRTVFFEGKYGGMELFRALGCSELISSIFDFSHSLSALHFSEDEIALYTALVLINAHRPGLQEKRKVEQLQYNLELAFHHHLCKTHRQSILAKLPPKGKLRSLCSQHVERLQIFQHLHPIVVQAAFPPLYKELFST
Experiment: In vitro RORc ligand binding assay (25-[3H]hydroxycholesterol displacement, filter binding)
Conditions: 6 nM 25-[3H]hydroxycholesterol, 0.6 ug/mL RORc receptor, 3 h at 25° C.
Experimental: Example 17: In Vitro RORc Ligand Binding Assay
This assay was used to determine a compound's potency in inhibiting activity of RORc by determining, Kiapp, IC50, or percent inhibition values.
On day of the assay, 100 uL of 0.05% CHAPS (in deionized H2O) was added to all wells of the GFB Unifilter plate and allowed soak for 1 h. A wash buffer of 50 mM HEPES (pH 7.4), 150 mM NaCl, and 5 mM MgCl2 was prepared to wash the filter plate. To prepare an assay buffer, BSA was added to the wash buffer to reach 0.01% and DTT was added to reach 1 mM.
For IC50 mode, 10 mM compound stocks were serially diluted in DMSO with DMSO to give 20× required final concentration in DMSO (15 uL compound+30 uL DMSO). The 20× compound stocks were diluted in DMSO with Assay Buffer 4-fold to reach 5× the final test concentration in 25% DMSO (10 uL compound+30 uL Assay Buffer). Solutions were mixed by aspiration several times with a pipette set on 50 uL volume. For the assay, 10 uL of 5× compound stock solutions in 25% DMSO were added to the assay plate in duplicate.
For two point screening, 10 mM stock compound solutions were diluted in DMSO to obtain 200 uM (20× the high test concentration) and then diluted 10-fold further to reach 20 uM (20× the low test concentration). The 20× stocks were diluted 4-fold with Assay Buffer (10 uL compound+30 uL Assay Buffer) to reach 5× the test concentrations (50 uM and 5 uM) and 10 uL were added to two assay plates for the duplicate wells. With each concentration tested on 2 plates, each set of 80 compounds used 4 assay plates (1 uM and 10 uM, with n=2).
25-hydroxycholesterol (1 uM) was used to determine the level of NSB signal is prepared in DMSO as for compounds above, then diluted in Assay Buffer to give a final concentration of 5 uM. For 25-hydroxycholesterol in 25% DMSO/75% Assay Buffer; 10 uL per well was used for NSB samples. Wells for Total Binding and No Receptor sample determination contained 10 uL of 25% DMSO/75% Assay Buffer per well.
25-[^3H]hydroxycholesterol was diluted in Assay Buffer to obtain 15 nM and vortex to mix. Add 20 uL to all wells to reach 6 nM final concentration in the assay.
Stock receptor solution was diluted in assay buffer to obtain 1.5 ug/mL in Assay Buffer. 20 uL was added to all wells. For No Receptor samples, 20 uL Assay Buffer was substituted for receptor solution.
Assay plates were 96-well polypropylene V-bottom plates. 10 uL of 5× compound in 25% DMSO/75% Assay Buffer was added to Test wells. 10 uL of 25% DMSO/75% Assay Buffer was added to Total Binding or No Receptor wells. 10 uL of 5 uM 25-hydroxycholesterol in 25% DMSO/75% Assay Buffer was added to NSB wells. 20 uL of 15 nM 25-[^3H]hydroxycholesterol prepared in Assay Buffer was added to all wells. 20 uL of 1.5 ug/mL RORc receptor was added to wells (or […] Assay Buffer to No R wells). Following addition to the wells, the plates were incubated 3 h at 25° C.
Using a Packard Filtermate Harvester, the filter plate were washed 4 times following transfer of the incubated samples. Plates were dry-filtered completely (2 h at 50° C. or overnight at room temperature). 50 uL Microscint 0 was added to all wells and read on Topcount protocol Inverted.
Final concentrations were as follows: 50 mM HEPES buffer (pH 7.4); 150 mM NaCl; 1 mM DTT; 5 mM MgCl2; 0.01% BSA; 5% DMSO; 0.6 ug/mL RORc receptor; 6 nM 25-[^3H]hydroxycholesterol. For NSB wells, 1 uM 25-hydroxycholesterol was also present.

Row | SMILES | IC50 [nM]
1 | Cc1nc(C[C@@]23CC[C@@H](c4cc(-c5c(F)cccc5F)nnc42)C3(C)C)no1 [Example 59, (5R,8R)-3-(2,6-difluorophenyl)-9,9-dimethyl-8-[(5-methyl-1,2,4-oxadiazol-3-yl)methyl]-5,6,7,8-tetrahydro-5,8-methanocinnoline] | 106
2 | Cc1noc([C@]23CC[C@H](c4cc(-c5c(F)cccc5F)nnc42)C3(C)C)n1 [Example 60, (5S,8S)-3-(2,6-difluorophenyl)-9,9-dimethyl-8-(3-methyl-1,2,4-oxadiazol-5-yl)-5,6,7,8-tetrahydro-5,8-methanocinnoline] | 415
3 | CC1(C)[C@H]2CC[C@]1(Cc1noc(CO)n1)c1nnc(-c3c(F)cccc3F)cc12 [Example 61, (3-{[(5R,8R)-3-(2,6-difluorophenyl)-9,9-dimethyl-6,7-dihydro-5,8-methanocinnolin-8(5H)-yl]methyl}-1,2,4-oxadiazol-5-yl)methanol] | 323
4 | COCc1nc(C[C@@]23CC[C@@H](c4cc(-c5c(F)cccc5F)nnc42)C3(C)C)no1 [Example 62, (5R,8R)-3-(2,6-difluorophenyl)-8-{[5-(methoxymethyl)-1,2,4-oxadiazol-3-yl]methyl}-9,9-dimethyl-5,6,7,8-tetrahydro-5,8-methanocinnoline] | 129
5 | COC(=O)c1ccc(COC[C@]23CC[C@H](c4cc(-c5ccccc5F)nnc42)C3(C)C)cc1 [Example 63, methyl 4-({[(5S,8S)-3-(2-fluorophenyl)-9,9-dimethyl-6,7-dihydro-5,8-methanocinnolin-8(5H)-yl]methoxy}methyl) benzoate] | 136
6 | Cc1noc([C@@]23CC[C@@H](c4cc(-c5c(F)cccc5F)nnc42)C3(C)C)n1 [Example 64, (5R,8R)-3-(2,6-difluorophenyl)-9,9-dimethyl-8-(3-methyl-1,2,4-oxadiazol-5-yl)-5,6,7,8-tetrahydro-5,8-methanocinnoline] | 67
7 | Cc1nnc(C[C@@]23CC[C@@H](c4cc(-c5c(F)cccc5F)nnc42)C3(C)C)o1 [Example 65, (5R,8R)-3-(2,6-difluorophenyl)-9,9-dimethyl-8-[(5-methyl-1,3,4-oxadiazol-2-yl)methyl]-5,6,7,8-tetrahydro-5,8-methanocinnoline] | 131
8 | CN(C)Cc1nc(C[C@@]23CC[C@@H](c4cc(-c5c(F)cccc5F)nnc42)C3(C)C)no1 [Example 66, 1-(3-{[(5R,8R)-3-(2,6-difluorophenyl)-9,9-dimethyl-6,7-dihydro-5,8-methanocinnolin-8(5H)-yl]methyl}-1,2,4-oxadiazol-5-yl)-N,N-dimethylmethanamine] | 298
9 | Cc1nnc([C@@]23CC[C@@H](c4cc(-c5c(F)cccc5F)nnc42)C3(C)C)o1 [Example 67, (5R,8R)-3-(2,6-difluorophenyl)-9,9-dimethyl-8-(5-methyl-1,3,4-oxadiazol-2-yl)-5,6,7,8-tetrahydro-5,8-methanocinnoline] | 31
10 | CC1(C)[C@H]2CC[C@]1(c1nnc(CO)o1)c1nnc(-c3c(F)cccc3F)cc12 [Example 68, {5-[(5R,8R)-3-(2,6-difluorophenyl)-9,9-dimethyl-6,7-dihydro-5,8-methanocinnolin-8(5H)-yl]-1,3,4-oxadiazol-2-yl}methanol] | 116
11 | CC1(C)[C@@H]2CC[C@@]1(C(=O)N1CCCC1)c1nnc(-c3c(F)cccc3F)cc12 [Example 69, [(5S,8S)-3-(2,6-difluorophenyl)-9,9-dimethyl-6,7-dihydro-5,8-methanocinnolin-8(5H)-yl](pyrrolidin-1-yl)methanone] | 23
12 | CN(C(=O)[C@]12CC[C@H](c3cc(-c4c(F)cccc4F)nnc31)C2(C)C)C1CCC1 [Example 70, (5S,8S)-N-cyclobutyl-3-(2,6-difluorophenyl)-N,9,9-trimethyl-6,7-dihydro-5,8-methanocinnoline-8(5H)-carboxamide] | 215
13 | CC1(C)[C@@H]2CC[C@@]1(COCc1ccc(C(=O)O)cc1)c1nnc(-c3ccccc3F)cc12 [Example 71, 4-({[(5S,8S)-3-(2-fluorophenyl)-9,9-dimethyl-6,7-dihydro-5,8-methanocinnolin-8(5H)-yl]methoxy}methyl) benzoic acid] | 284
14 | CC1(C)[C@@H]2CC[C@@]1(COCc1ccc(C(N)=O)cc1)c1nnc(-c3ccccc3F)cc12 [Example 72, 4-({[(5S,8S)-3-(2-fluorophenyl)-9,9-dimethyl-6,7-dihydro-5,8-methanocinnolin-8(5H)-yl]methoxy}methyl) benzamide] | 158
15 | CN(C)C(=O)[C@]12CC[C@H](c3cc(-c4c(F)cccc4F)nnc31)C2(C)C [Example 73, (5S,8S)-3-(2,6-difluorophenyl)-N,N,9,9-tetramethyl-6,7-dihydro-5,8-methanocinnoline-8(5H)-carboxamide] | 29
16 | CC1(C)CN(C(=O)[C@]23CC[C@H](c4cc(-c5c(F)cccc5F)nnc42)C3(C)C)C1 [Example 74, [(5S,8S)-3-(2,6-difluorophenyl)-9,9-dimethyl-6,7-dihydro-5,8-methanocinnolin-8(5H)-yl](3,3-dimethylazetidin-1-yl)methanone] | 693
17 | Cc1noc(C[C@@]23CC[C@@H](c4cc(-c5c(F)cccc5F)nnc42)C3(C)C)n1 [Example 75, (5R,8R)-3-(2,6-difluorophenyl)-9,9-dimethyl-8-[(3-methyl-1,2,4-oxadiazol-5-yl)methyl]-5,6,7,8-tetrahydro-5,8-methanocinnoline] | 89
18 | CC1(C)[C@H]2CC[C@]1(C(N)=O)c1nnc(-c3c(F)cccc3F)cc12 [Example 77, (5R,8R)-3-(2,6-difluorophenyl)-9,9-dimethyl-6,7-dihydro-5,8-methanocinnoline-8(5H)-carboxamide] | 1460
19 | CC1(C)[C@H]2CC[C@]1(C#N)c1nnc(-c3c(F)cccc3F)cc12 [Example 78, (5R,8R)-3-(2,6-difluorophenyl)-9,9-dimethyl-6,7-dihydro-5,8-methanocinnoline-8(5H)-carbonitrile] | 925
20 | CN(C)C1CN(C(=O)[C@]23CC[C@H](c4cc(-c5c(F)cccc5F)nnc42)C3(C)C)C1 [Example 79, [(5S,8S)-3-(2,6-difluorophenyl)-9,9-dimethyl-6,7-dihydro-5,8-methanocinnolin-8(5H)-yl][3-(dimethylamino)azetidin-1-yl]methanone] | 1120
21 | Cc1nc([C@@]23CC[C@@H](c4cc(-c5c(F)cccc5F)nnc42)C3(C)C)no1 [Example 80, (5R,8R)-3-(2,6-difluorophenyl)-9,9-dimethyl-8-(5-methyl-1,2,4-oxadiazol-3-yl)-5,6,7,8-tetrahydro-5,8-methanocinnoline] | 136
22 | CC(=O)N[C@@]12CC[C@@H](c3cc(-c4ccccc4F)nnc31)C2(C)C [Example 81, N-[(5R,8R)-3-(2-fluorophenyl)-9,9-dimethyl-6,7-dihydro-5,8-methanocinnolin-8(5H)-yl]acetamide] | 2070
23 | CN(C)C(=O)[C@@]12CC[C@@H](c3cc(-c4c(F)cccc4F)nnc31)C2(C)C [Example 82, (5R,8R)-3-(2,6-difluorophenyl)-N,N,9,9-tetramethyl-6,7-dihydro-5,8-methanocinnoline-8(5H)-carboxamide] | 856
